Four compounds from ChEMBL document CHEMBL1201862, “PubChem BioAssay data set” (2004) can be followed below.

Assay [1] addresses Photoreceptor-specific nuclear receptor (Homo sapiens, UniProt Q9Y5X4). The class given is functional, cell-based.
In assay [2] the target is T1, Cyclin-dependent kinase 5/CDK5 activator 1 (Homo sapiens, UniProt Q00535). Kind of assay: CDK5/p35 kinase inhibitors, dose response, biochemical, cherry-picked samples, set 2 (AID 504545).
For assay [3], the target named is Mitogen-activated protein kinase 10 (Homo sapiens, UniProt P53779). Kind of assay: Dose response biochemical screening assay for inhibitors of c-Jun N-Terminal Kinase 3 (JNK3). [Related pubchem assays: 746 ].
Mitogen-activated protein kinase 10, sequence (P53779 whole entry): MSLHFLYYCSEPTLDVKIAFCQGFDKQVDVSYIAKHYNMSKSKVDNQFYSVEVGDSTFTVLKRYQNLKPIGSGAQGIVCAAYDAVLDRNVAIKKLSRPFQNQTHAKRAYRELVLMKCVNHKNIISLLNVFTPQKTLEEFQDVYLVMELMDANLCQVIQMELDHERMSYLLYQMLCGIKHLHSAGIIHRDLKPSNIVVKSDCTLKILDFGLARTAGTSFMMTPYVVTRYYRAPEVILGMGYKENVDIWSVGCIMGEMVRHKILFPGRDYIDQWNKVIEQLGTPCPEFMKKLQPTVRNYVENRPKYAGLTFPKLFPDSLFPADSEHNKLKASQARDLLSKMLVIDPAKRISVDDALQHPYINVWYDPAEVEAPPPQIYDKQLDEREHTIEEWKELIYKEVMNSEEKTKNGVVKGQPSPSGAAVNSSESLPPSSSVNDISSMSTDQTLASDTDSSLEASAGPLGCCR
For assay [4], the target named is Glycogen synthase kinase-3 alpha (Homo sapiens, UniProt P49840). Kind of assay: Inhibition of Human GSK-3 alpha Activity Measured in Biochemical System Using Microfluidics - 2063-06_Inhibitor_Dose_DryPowder_Activity_Set2. [Related pubchem assays (depositor defined):AID2709].
Glycogen synthase kinase-3 alpha, sequence (P49840 whole entry): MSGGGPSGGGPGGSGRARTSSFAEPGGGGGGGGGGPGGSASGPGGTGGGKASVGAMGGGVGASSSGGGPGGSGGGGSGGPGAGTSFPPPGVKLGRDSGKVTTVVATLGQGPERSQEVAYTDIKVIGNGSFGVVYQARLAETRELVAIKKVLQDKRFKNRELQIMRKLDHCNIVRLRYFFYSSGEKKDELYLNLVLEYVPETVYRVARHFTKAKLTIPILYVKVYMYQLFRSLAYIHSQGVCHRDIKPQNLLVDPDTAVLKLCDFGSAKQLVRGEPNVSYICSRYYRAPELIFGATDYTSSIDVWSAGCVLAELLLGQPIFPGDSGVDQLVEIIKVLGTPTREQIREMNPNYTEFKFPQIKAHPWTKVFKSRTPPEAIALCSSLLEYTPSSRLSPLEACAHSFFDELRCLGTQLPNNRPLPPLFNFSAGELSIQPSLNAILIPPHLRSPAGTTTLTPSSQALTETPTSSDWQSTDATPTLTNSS
Assay [5] concerns the target T1, Cyclin-dependent kinase 5/CDK5 activator 1. Kind of assay: CDK5-p25 kinase inhibitors, specificity check, dose response, selectivity assay for GSK-3 alpha inhibitor project, biochemical, microfluidic mobility shift, dry powder (AID 588430).
For assay [6], the target named is Glycogen synthase kinase-3 beta (Homo sapiens, UniProt P49841). Kind of assay: Inhibition of Human GSK-3 beta Activity Measured in Biochemical System Using Microfluidics - 2063-05_Inhibitor_Dose_DryPowder_Activity_Set2. [Related pubchem assays (depositor defined):AID2709].
Glycogen synthase kinase-3 beta, sequence (P49841 whole entry): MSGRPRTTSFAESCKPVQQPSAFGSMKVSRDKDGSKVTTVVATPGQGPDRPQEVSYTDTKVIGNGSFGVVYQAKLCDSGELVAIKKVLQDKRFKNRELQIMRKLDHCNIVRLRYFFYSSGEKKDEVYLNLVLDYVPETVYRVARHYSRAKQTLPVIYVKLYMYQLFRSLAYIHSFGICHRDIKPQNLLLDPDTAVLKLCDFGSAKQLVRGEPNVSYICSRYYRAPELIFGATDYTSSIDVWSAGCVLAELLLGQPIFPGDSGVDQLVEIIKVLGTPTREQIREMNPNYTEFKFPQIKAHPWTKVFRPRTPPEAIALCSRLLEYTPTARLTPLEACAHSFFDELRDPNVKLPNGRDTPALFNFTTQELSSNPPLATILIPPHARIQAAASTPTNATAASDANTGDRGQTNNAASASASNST
The target in assay [7] is DNA dC->dU-editing enzyme APOBEC-3G (Homo sapiens, UniProt Q9HC16). Kind of assay: Dose Response confirmation of small molecule APOBEC3G DNA Deaminase Inhibitors via a fluorescence-based single-stranded DNA deaminase assay. [Related pubchem assays (depositor defined):AID493012, AID493028]. The assay is classed as functional.
DNA dC->dU-editing enzyme APOBEC-3G, sequence (Q9HC16 whole entry): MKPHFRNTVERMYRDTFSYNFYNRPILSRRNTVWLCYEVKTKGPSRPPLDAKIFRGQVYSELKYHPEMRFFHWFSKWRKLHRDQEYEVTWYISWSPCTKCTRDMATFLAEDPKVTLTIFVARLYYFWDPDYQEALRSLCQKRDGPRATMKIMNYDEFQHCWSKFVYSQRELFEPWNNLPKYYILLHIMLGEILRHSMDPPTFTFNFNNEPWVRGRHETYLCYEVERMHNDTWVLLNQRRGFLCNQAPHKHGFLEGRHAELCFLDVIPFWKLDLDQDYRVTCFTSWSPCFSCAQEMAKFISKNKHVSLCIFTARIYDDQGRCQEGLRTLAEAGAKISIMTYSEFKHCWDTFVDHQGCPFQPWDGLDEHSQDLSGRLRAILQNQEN
Assay [8] deals with DNA dC->dU-editing enzyme APOBEC-3A (Homo sapiens, UniProt P31941). Kind of assay: APOBEC3A DNA deaminase inhibitors, dose response, biochemical (AID 504722). The class given is functional.
DNA dC->dU-editing enzyme APOBEC-3A, sequence (P31941 whole entry): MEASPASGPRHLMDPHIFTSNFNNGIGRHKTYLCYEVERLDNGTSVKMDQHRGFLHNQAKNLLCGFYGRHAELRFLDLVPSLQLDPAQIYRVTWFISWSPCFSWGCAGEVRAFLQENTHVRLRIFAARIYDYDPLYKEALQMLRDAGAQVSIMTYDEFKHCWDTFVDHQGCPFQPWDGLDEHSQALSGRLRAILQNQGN
For assay [9], the target named is C-X-C chemokine receptor type 5 (Homo sapiens, UniProt P32302). Kind of assay: CXCR5 receptor antagonists, SAR follow-up, selectivity assay for CCR6 antagonist project, cell-based, beta-arrestin, luminescence, CHO-K1 PathHunter (AID 540340). The assay is classed as functional.
C-X-C chemokine receptor type 5, sequence (P32302 whole entry): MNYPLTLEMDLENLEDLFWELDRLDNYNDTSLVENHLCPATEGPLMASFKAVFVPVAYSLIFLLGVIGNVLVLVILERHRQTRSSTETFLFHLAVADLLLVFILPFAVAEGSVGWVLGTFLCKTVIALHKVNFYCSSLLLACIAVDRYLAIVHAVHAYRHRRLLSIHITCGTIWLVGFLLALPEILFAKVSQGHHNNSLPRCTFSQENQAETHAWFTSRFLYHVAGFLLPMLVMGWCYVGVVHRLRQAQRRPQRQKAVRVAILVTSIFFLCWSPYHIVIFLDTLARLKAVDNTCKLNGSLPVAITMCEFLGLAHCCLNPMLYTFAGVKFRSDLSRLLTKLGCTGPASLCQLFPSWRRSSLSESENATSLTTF
Assay [10] deals with C-C chemokine receptor type 6 (Homo sapiens, UniProt P51684). Kind of assay: CCR6 receptor antagonists, SAR follow-up, cell-based, luminescent beta-arrestin readout (AID 540334). The class given is functional.
C-C chemokine receptor type 6, sequence (P51684 whole entry, the tested form may be a part): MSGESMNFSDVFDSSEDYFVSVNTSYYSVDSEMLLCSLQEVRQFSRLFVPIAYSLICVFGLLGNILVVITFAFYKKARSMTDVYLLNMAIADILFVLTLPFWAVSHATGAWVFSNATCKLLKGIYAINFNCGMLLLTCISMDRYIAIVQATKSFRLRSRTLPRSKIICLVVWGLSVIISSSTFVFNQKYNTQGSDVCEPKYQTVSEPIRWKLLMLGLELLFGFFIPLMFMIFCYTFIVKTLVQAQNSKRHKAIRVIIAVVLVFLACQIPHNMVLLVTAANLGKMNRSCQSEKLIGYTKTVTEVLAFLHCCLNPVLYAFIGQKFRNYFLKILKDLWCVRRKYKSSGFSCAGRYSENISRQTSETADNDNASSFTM
The target in a further assay is Apelin receptor (Homo sapiens, UniProt P35414). Kind of assay: APJ beta-arrestin recruitment antagonism, SAR follow-up, selectivity assay for CCR6 antagonist project, cell-based, luminescent, enzyme-fragment complementation (AID 588359). The assay is classed as functional. On the technique in general: Arrestin recruitment assays detect the binding of arrestin to an activated receptor.
Apelin receptor, sequence (P35414 whole entry, the tested form may be a part): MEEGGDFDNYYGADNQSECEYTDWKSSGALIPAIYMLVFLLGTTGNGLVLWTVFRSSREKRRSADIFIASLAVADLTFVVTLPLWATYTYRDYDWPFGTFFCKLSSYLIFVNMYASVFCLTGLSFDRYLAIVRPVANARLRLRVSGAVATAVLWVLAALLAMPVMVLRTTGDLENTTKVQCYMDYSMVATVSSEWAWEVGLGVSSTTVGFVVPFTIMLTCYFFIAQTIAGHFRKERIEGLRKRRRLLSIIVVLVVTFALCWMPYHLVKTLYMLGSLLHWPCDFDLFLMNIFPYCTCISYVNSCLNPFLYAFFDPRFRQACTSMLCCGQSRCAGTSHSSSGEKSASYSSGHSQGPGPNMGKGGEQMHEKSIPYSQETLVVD

Assay [11] has as its system Candida albicans. Kind of assay: growth inhibition of azole-resistant C. albicans, dose response, CaCi-8 strain, Alamar Blue, dry powder, set 2 (AID 488909). The class given is functional, organism-based. (In general: The colour change of resazurin is a common sign of viable cells or microbes.)
Assay [12] relates to Candida albicans. Kind of assay: fluconazole resistance reversal in C. albicans, dose response, CaCi-2 strain, Alamar Blue, dry powder, set 4 (AID 488943). The class given is functional, organism-based.
In assay [13] the test system is Candida albicans. Kind of assay: Candida albicans growth inhibition, agent alone, dose response, counter-screen for reversing antifungal drug resistance, CaCi-2 strain, no fluconazole, dry powder, set 4 (AID 488932). The assay is classed as functional, organism-based. (The purpose of a counterscreen is to sort out artefacts and off-target activity.)
In the next assay the test system is NIH3T3. Kind of assay: mammalian cell toxicity in NIH-3T3 fibroblasts, dose response, cytotoxicity control for antifungal resistance reversal project, Alamar Blue, dry powder, set 2 (AID 488911). The assay is classed as functional, cell-based. The settings on record: Mus musculus.
For assay [14], the system named is Candida albicans. Kind of assay: growth inhibition of resistant C. albicans, dose response, CaCi-8 strain, fluconazole, dry powder, set 4 (AID 488950). The assay is classed as functional, organism-based.
Assay [15] deals with T2, Sentrin-specific protease 6 (Homo sapiens, UniProt Q9GZR1).
T2 sequence (Q9GZR1 whole entry): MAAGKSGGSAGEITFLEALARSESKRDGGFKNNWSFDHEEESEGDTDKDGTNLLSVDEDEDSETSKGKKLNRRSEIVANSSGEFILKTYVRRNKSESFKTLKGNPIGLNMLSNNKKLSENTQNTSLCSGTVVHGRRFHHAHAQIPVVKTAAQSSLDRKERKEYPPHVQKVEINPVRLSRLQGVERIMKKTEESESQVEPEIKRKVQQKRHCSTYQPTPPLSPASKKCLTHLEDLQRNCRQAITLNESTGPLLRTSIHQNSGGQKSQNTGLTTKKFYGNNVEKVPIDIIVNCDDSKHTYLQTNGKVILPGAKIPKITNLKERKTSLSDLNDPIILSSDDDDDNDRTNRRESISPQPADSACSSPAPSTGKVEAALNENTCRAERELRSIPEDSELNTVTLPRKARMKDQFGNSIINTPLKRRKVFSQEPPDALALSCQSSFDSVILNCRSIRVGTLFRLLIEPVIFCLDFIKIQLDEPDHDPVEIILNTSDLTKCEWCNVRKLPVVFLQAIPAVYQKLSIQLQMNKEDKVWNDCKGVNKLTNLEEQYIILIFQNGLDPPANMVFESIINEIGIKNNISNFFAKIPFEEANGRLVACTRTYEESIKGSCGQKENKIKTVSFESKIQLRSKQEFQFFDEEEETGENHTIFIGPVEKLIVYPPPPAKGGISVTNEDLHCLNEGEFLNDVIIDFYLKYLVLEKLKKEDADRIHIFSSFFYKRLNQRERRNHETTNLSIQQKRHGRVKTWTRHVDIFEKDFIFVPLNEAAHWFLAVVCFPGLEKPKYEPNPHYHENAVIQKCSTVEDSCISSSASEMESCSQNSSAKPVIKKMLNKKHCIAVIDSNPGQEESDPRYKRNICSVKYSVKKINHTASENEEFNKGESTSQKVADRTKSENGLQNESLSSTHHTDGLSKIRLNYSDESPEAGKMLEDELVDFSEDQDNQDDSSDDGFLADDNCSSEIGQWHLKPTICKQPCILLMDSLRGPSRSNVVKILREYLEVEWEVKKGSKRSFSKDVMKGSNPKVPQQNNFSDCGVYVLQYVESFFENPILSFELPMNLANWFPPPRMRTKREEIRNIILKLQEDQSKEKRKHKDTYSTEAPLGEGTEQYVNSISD
Kind of assay: SAR Analysis of small molecule inhibitors of Sentrin-specific protease 6 (SENP6) using a Luminescent assay. [Related pubchem assays (depositor defined):AID2582, AID2599]. The class given is functional.

The target in assay [16] is T3, Sentrin-specific protease 8 (Homo sapiens, UniProt Q96LD8).
T3 sequence (Q96LD8 whole entry): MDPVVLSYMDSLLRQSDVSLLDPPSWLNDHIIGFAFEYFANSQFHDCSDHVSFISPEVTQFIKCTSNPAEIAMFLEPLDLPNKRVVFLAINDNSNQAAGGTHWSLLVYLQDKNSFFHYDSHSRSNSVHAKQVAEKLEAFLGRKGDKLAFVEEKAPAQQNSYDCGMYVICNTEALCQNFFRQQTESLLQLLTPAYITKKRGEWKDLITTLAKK
Kind of assay: SENP8 protease inhibitors, SAR follow-up, biochemical, luminescence (AID 504501). The assay is classed as functional.

The target of another assay is T4, Caspase-3 (Homo sapiens, UniProt P42574).
T4 sequence (P42574 whole entry): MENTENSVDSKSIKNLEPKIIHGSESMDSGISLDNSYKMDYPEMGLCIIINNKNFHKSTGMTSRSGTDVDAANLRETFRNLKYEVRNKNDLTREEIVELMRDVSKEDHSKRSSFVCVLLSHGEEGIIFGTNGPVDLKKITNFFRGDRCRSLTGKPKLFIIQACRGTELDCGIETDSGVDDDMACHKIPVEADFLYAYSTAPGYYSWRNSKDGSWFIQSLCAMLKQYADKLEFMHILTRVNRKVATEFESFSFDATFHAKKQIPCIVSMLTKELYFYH
Kind of assay: SAR Analysis of small molecule inhibitors of Sentrin-specific proteases (SENPs) using a Caspase-3 Selectivity assay. [Related pubchem assays (depositor defined):AID2540, AID2599, AID434973, AID489001]. The class given is functional.

Assay [17] addresses T5, Sentrin-specific protease 7 (Homo sapiens, UniProt Q9BQF6).
T5 sequence (Q9BQF6 whole entry): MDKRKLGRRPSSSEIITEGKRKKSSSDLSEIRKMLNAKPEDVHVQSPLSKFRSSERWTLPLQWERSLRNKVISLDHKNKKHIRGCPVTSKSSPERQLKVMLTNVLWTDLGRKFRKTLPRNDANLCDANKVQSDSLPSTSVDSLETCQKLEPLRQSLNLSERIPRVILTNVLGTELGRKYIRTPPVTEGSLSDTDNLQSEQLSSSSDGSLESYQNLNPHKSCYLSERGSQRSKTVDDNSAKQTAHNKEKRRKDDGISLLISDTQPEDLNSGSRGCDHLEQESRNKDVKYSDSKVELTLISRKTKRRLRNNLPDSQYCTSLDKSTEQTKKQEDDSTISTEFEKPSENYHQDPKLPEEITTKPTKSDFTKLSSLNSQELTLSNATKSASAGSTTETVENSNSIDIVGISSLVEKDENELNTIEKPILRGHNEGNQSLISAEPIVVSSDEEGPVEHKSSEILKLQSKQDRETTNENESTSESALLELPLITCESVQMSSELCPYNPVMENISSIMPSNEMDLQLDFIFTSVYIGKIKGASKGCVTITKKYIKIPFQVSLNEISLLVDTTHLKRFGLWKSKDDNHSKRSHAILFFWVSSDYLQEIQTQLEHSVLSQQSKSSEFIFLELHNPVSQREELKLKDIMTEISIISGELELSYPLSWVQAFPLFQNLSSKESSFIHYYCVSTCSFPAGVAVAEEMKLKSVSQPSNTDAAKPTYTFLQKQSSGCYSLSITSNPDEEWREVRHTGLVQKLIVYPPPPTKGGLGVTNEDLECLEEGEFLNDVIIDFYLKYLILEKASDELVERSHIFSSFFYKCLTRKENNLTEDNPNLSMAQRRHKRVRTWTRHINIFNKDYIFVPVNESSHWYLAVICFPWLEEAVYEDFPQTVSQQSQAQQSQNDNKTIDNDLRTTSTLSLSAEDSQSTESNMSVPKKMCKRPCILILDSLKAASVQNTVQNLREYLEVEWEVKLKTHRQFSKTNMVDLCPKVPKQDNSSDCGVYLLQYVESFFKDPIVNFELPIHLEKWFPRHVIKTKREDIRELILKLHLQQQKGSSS
Kind of assay: SENP7 protease inhibitors, SAR follow-up, biochemical, luminescence (AID 504497). The class given is functional.

Activity calls are given as the source filed them. Unless noted, no cut-off for these calls is given here.

T1 sequence (Q00535 whole entry): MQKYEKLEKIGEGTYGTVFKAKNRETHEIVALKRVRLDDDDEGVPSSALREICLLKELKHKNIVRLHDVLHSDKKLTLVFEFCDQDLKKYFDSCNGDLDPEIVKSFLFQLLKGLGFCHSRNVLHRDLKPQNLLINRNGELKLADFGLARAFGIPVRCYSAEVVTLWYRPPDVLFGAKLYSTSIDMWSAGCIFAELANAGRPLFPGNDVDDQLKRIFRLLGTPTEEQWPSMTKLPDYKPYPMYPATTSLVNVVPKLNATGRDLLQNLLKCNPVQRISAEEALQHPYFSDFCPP
T1 sequence (Q15078 whole entry, further chain): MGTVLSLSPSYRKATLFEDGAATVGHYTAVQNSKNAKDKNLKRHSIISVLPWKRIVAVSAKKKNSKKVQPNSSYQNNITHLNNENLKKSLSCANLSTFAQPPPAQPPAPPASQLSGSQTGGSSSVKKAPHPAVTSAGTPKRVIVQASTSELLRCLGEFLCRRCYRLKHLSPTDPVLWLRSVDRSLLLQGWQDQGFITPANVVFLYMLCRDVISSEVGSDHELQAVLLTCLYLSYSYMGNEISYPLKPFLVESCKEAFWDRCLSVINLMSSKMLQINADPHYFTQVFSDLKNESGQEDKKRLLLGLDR
Photoreceptor-specific nuclear receptor, sequence (Q9Y5X4 whole entry): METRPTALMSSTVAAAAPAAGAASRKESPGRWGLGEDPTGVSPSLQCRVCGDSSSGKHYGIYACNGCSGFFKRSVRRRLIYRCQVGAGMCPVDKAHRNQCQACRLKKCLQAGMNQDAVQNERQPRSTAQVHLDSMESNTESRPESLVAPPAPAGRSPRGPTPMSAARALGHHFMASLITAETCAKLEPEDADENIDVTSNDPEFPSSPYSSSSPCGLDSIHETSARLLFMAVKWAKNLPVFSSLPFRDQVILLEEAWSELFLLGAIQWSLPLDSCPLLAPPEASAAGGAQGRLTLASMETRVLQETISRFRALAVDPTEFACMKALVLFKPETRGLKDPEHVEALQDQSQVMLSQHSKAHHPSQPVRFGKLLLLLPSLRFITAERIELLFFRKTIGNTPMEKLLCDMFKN

For orientation: IC50 means the concentration needed to halve the response being measured. What is called AC50 is the concentration giving half of the maximal activity seen. Take `COc1cccc(C(=O)c2sc(NC(C)C)nc2N)c1`: the results for the IC50 in [1] and in assay [3] were 0.0182 µM (active) and > 31 µM (not active), respectively. Also, the AC50 is 7.12 µM (active) in assay [2], 0.288 µM (active) in assay [4], 1.11 µM (active) in assay [5] and 0.252 µM (active) in assay [6].
In the case of `O=C1C2C3C=CC(CO)(O3)C2C(=O)N1c1ccccc1-c1ccccc1` (stereo not given), the IC50 was 11.4 µM (active) in assay [7]; > 100 µM (inactive) in [8]; 52.7 µM (inactive) in assay [9]; > 66.6 µM (inactive) in assay [10]; > 66.6 µM (inactive) on Apelin receptor.
With `O=C(c1ccc(Cl)cc1)N1CCN(c2cccnc2)CC1`, the AC50 was 30.5 µM (active) in the assay with Candida albicans [11]; 25 µM (active) in the assay on Candida albicans [12]; 43.5 µM (active) in the assay on Candida albicans [13]; 190 µM (active) in the assay with NIH3T3; 20.4 µM (active) with Candida albicans [14].
As for `N#Cc1cccc(-c2nc(/C=C/c3ccc(F)cc3)no2)c1`, the IC50 (in assay [15]; in assay [16]; at Caspase-3; in [17]) was > 99 µM (inactive) throughout.
